# Earlier results as cited in Sander's compilation of Henry's law constants.
# Experiment: Henry solubility constant Hcp at 298.15 K (mol/(m3 Pa))
# Conditions: reference: Schüürmann (2000); cited value
row,Structure (SMILES),Henry solubility constant Hcp
1,"Clc1ccc(Cl)cc1 [1,4-dichlorobenzene]",0.0041
2,"Cc1ccc(C)cc1 [1,4-dimethylbenzene]",0.0013
3,Cc1ccccc1O [1-hydroxy-2-methylbenzene],8.3
4,Cc1ccc(O)cc1 [1-hydroxy-4-methylbenzene],13
5,CC(=O)c1ccccc1 [1-phenylethanone],0.93
6,O=Cc1ccccc1 [benzaldehyde],0.37
7,c1ccccc1 [benzene],0.0018
8,Sc1ccccc1 [benzenethiol],0.03
9,Brc1ccccc1 [bromobenzene],0.004
10,Clc1ccccc1 [chlorobenzene],0.0027
11,COc1ccccc1 [methoxybenzene],0.069
12,Cc1ccccc1 [methylbenzene],0.0015
13,O=[N+]([O-])c1ccccc1 [nitrobenzene],0.41
